Like-named read-outs stand apart in the source and are kept apart here.

Test [1] addresses His-tagged KRAS G12D protein (Homo sapiens, UniProt P01116, G12D). Put plainly: KRAS G12D TR-FRET Assay. The test is classed as binding. The protocol:
The His-tagged KRAS G12D protein (Amgen) was diluted to 20 nM in Assay Buffer (20 mM HEPES, pH 7.4, 10 mM MgCl2, 50 mM NaCl, 0.1% BSA, 0.01% Tween-20, 10 μM GDP) and 2 μL was added to the appropriate wells of the 384-well plate. The plate was incubated for 30 minutes at room temperature. Biotinylated KRPep-2d substrate (Amgen) was diluted to 20 nM in Assay Buffer and 2 μL was added to all wells and incubated for 1 hour at room temperature. Detection Reagent (0.4 nM LANCE Eu-W1024 Anti-6×His (Perkin Elmer AD0401), 5 nM streptavidin-d2 (Cisbio 610SADLA)) was prepared in Assay Buffer, then 4 μL was added to the plate and incubated for 1 hour at room temperature.
A general note: Time-resolved FRET reads energy transfer from a long-lived donor to a nearby acceptor.

Test [2] has as its target GDP-bound KRAS protein (aa 1-169), containing both G12D and C118A amino acid substitutions (Homo sapiens, UniProt P01116, C118A/G12D). Briefly: KRAS G12D Coupled Nucleotide Exchange Assay. In kind it is biochemical. Conditions: 2 hours compound pre-incubation; SOS-mediated nucleotide exchange. How it is done:
KRAS G12D Coupled Nucleotide Exchange Assay
The assay plates were then read on a PerkinElmer En Vision Multilabel Reader, using AlphaScreen® technology, and data were analyzed using a 4-parameter logistic model to calculate IC50 values.

In test [3] the test system is Phosphorylation of ERK1/2 in AsPC-1 cells. Briefly: Phospho-ERK1/2 MSD Assay. Conditions: AsPC-1 cells, 2 h compound treatment, read-out: 2 h p-ERK (AsPC-1 cells), IC50. The test is classed as cell-based, human. How it is done: Sixteen hours prior to compound treatment, AsPC-1 cells were seeded in 96-well cell culture plates at a density of 25,000 cells/well and incubated at 37° C., 5% CO2. A compound dose-response titration was diluted in growth media, added to appropriate wells of a cell culture plate, and then incubated at 37° C., 5% CO2 for 2 hours. […] Phosphorylation of ERK1/2 in compound-treated lysates was assayed using Phospho-ERK 1/2 Whole Cell Lysate kits (Meso Scale Discovery K151DWD) according to the manufacturer's protocol. Assay plates were read on a Meso Scale Discovery Sector Imager 6000, and data were analyzed using a 4-parameter logistic model to calculate IC50 values.

[4] abbreviates: TR-FRET, read-out: KRAS G12D Binding IC50.

Chain of His-tagged KRAS G12D protein (P01116 1-188 isoform P01116-2 G12D): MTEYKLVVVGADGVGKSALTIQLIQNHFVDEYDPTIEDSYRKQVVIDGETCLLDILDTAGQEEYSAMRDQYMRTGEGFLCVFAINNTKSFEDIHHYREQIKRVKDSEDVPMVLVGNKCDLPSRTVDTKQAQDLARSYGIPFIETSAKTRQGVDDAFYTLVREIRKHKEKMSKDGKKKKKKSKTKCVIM
Chain of GDP-bound KRAS protein (aa 1-169), containing both G12D and C118A amino acid substitutions (P01116 1-169 isoform P01116-2 G12D/C118A): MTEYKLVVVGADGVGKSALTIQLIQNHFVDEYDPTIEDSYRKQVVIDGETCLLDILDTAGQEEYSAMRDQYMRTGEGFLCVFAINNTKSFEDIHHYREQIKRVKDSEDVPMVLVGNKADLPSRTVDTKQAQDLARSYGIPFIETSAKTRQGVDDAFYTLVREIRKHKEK

For the molecule `Cc1cc2[nH]ncc2c2c1CCCCCCC1(O)CCCN(C1)c1nc(OC[C@@]34CCCN3C[C@H](F)C4)nc3c(F)c-2ncc13` (mixture of isomers) [Example 44], the IC50 is 160 nM in test [1] (TR-FRET binding) and 266 nM in test [2]. Taken in the same sequence, the figures for `O=C1N[C@@H]2C[C@H](O)CN(C2)c2nc(OC[C@@]34CCCN3C[C@H](F)C4)nc3c(F)c(ncc23)-c2c(c(Cl)cc3[nH]ncc23)CCCO1` (single isomer, unassigned) [Example 284] were 5 nM and 2 nM. For `CN1C(=O)OCCCc2c(Cl)cc3[nH]ncc3c2-c2ncc3c(nc(OC[C@@]45CCCN4C[C@H](F)C5)nc3c2F)N2C[C@H](O)C[C@H]1C2` (single isomer, unassigned) [Example 287], in that order: 1230 nM and 376 nM. Take `O=C1OCCc2c(Cl)cc3[nH]ncc3c2-c2ncc3c(nc(OC[C@@]45CCCN4C[C@H](F)C5)nc3c2F)N2CCC[C@@]3(C[C@H](CO3)O1)C2` (single isomer, unassigned) [Example 314]: the results for the IC50 in test [1] (TR-FRET binding) and in test [2] were 21 nM and 11 nM, respectively. `O=C1OCCc2c(Cl)cc3[nH]ncc3c2-c2ncc3c(nc(OC[C@@]45CCCN4C[C@H](F)C5)nc3c2F)N2CCC[C@]3(C[C@@H](CO3)O1)C2` (single isomer, unassigned) [Example 315]: the IC50 is 3 nM in test [1] (TR-FRET binding) and 2 nM in test [2]. Regarding `CN1CCC[C@H]1COc1nc2c3cnc(c(F)c3n1)-c1c(c(Cl)cc3[nH]ncc13)CCCOC(=O)O[C@]1(CF)COCCN2C1` (single isomer, unassigned) [Example 338], the concentration for half-maximal inhibition (IC50) in test [1] (TR-FRET binding) was found to be 7 nM. As to `O=C1OCCCc2c(Cl)cc3[nH]ncc3c2-c2ncc3c(nc(OC[C@@]45CCCN4C[C@H](F)C5)nc3c2F)N2CCCC[C@](CF)(C2)O1` (single isomer, unassigned) [Example 340], in test [1] (TR-FRET binding), the IC50 was found to be 4 nM. Molecule `[2H]C([2H])([2H])[C@]12COCCN(C1)c1nc(OC[C@@]34CCCN3C[C@H](F)C4)nc3c(F)c(ncc13)-c1c(c(C)cc3[nH]ncc13)CCCOC(=O)O2` (single isomer, unassigned) [Example 351] had an IC50 in test [1] (TR-FRET binding) of 464 nM. In test [1] (TR-FRET binding), `[2H]C([2H])([2H])[C@@]12COCCN(C1)c1nc(OC[C@@]34CCCN3C[C@H](F)C4)nc3c(F)c(ncc13)-c1c(c(C)cc3[nH]ncc13)CCCOC(=O)O2` (single isomer, unassigned) [Example 352] showed an IC50 of 6 nM. The same measure, in the same setting: then `[2H]C([2H])([2H])[C@]12COCCN(C1)c1nc(OC[C@@]34CCCN3C[C@H](F)C4)nc3c(F)c(ncc13)-c1c(c(Cl)cc3[nH]ncc13)CCCOC(=O)O2` (single isomer, unassigned) [Example 354], with 1590 nM. Turning to `CC12COCCN(C1)c1nc(OC[C@@]34CCCN3C[C@H](F)C4)nc3cc(nnc13)-c1c(c(Cl)cc3[nH]ncc13)CCCOC(=O)O2` (single isomer, unassigned) [Example 362], the values for the IC50 in test [1] (TR-FRET binding) and in test [2] were 8 nM and 5 nM, respectively.

As to `C[C@@]12COCCN(C1)c1nc(OC[C@@]34CCCN3C[C@H](F)C4)nc3c(F)c(ncc13)-c1c3c(cc4[nH]ncc14)CC[C@H]3CCOC(=O)O2` (single isomer, unassigned) [Example 365], in test [1] (TR-FRET binding), the IC50 worked out at 3 nM. As for `C[C@@]12COCCN(C1)c1nc(OC[C@@]34CCCN3C[C@H](F)C4)nc3c(F)c(ncc13)-c1c3c(cc4[nH]ncc14)CC[C@@H]3CCOC(=O)O2` (single isomer, unassigned) [Example 366], the IC50 in test [1] (TR-FRET binding) was 938 nM.

Regarding `O=C1OCC[C@@H]2CCc3cc4[nH]ncc4c(c32)-c2ncc3c(nc(OC[C@@]45CCCN4C[C@H](F)C5)nc3c2F)N2CCOC[C@H](C2)O1` (single isomer, unassigned) [Example 367], the IC50 in test [1] (TR-FRET binding) is 4 nM. Consider `Fc1c2ncc3c(nc(OC[C@@]45CCCN4C[C@H](F)C5)nc13)N1CCOC[C@H](Cc3ncc(o3)CCc3c(Cl)cc4[nH]ncc4c3-2)C1` (single isomer, unassigned) [Example 375], for which, in test [1] (setting [4]), the IC50 was determined as 27 nM.

With `Fc1c2ncc3c(nc(OC[C@@]45CCCN4C[C@H](F)C5)nc13)N1CCOC[C@@H](Cc3ncc(o3)CCc3c(Cl)cc4[nH]ncc4c3-2)C1` (single isomer, unassigned) [Example 376], the IC50 in test [1] (setting [4]) was determined as 16 nM. As for `Fc1c2ncc3c(nc(OC[C@@]45CCCN4C[C@H](F)C5)nc13)N1CCC[C@@H](C1)c1cnc(o1)CCCc1c(Cl)cc3[nH]ncc3c1-2` (single isomer, unassigned) [Example 386], the IC50 in test [1] (setting [4]) turned out to be 3730 nM.

Take `Fc1c2ncc3c(nc(OC[C@@]45CCCN4C[C@H](F)C5)nc13)N1CCO[C@@H](C1)c1coc(n1)CCCc1c(Cl)cc3[nH]ncc3c1-2` (single isomer, unassigned) [Example 389]: in test [1] (setting [4]), the IC50 is 3960 nM. Take `Fc1c2ncc3c(nc(OC[C@@]45CCCN4C[C@H](F)C5)nc13)N1CCO[C@H](C1)c1coc(n1)CCCc1c(Cl)cc3[nH]ncc3c1-2` (single isomer, unassigned) [Example 390]: in test [1] (setting [4]), the IC50 was found to be 5 nM. Still for that read-out and setting: the value for `Fc1c2ncc3c(nc(OC[C@@]45CCCN4C[C@H](F)C5)nc13)N1CCO[C@@H](COCC[C@@H]3C[C@@H]3c3c(Cl)cc4[nH]ncc4c3-2)C1` (single isomer, unassigned) [Example 392] was 6 nM; that for `Fc1c2ncc3c(nc(OC[C@@]45CCCN4C[C@H](F)C5)nc13)N1CCO[C@@H](COCC[C@H]3C[C@H]3c3c(Cl)cc4[nH]ncc4c3-2)C1` (single isomer, unassigned) [Example 393] was 1810 nM; that for `Fc1c2ncc3c(nc(OC[C@@]45CCCN4C[C@H](F)C5)nc13)N1CCCC[C@](F)(COCCCCc3c(Cl)cc4[nH]ncc4c3-2)C1` (single isomer, unassigned) [Example 398] was 4 nM. `Fc1c2ncc3c(nc(OC[C@@]45CCCN4C[C@H](F)C5)nc13)N1CCCC[C@@](F)(COCCCCc3c(Cl)cc4[nH]ncc4c3-2)C1` (single isomer, unassigned) [Example 399]: in test [1] (setting [4]), the IC50 was found to be 4 nM. Regarding `O=C1CCCCc2c(Cl)cc3[nH]ncc3c2-c2ncc3c(nc(OC[C@@]45CCCN4C[C@H](F)C5)nc3c2F)N2CC[C@@H]3[C@H](C2)N1CC3(F)F` (single isomer, unassigned) [Example 403], the IC50 in test [1] (setting [4]) came out at 3 nM.

Consider `O[C@@H]1C[C@@H]2COCCCCc3c(Cl)cc4[nH]ncc4c3-c3ncc4c(nc(OC[C@@]56CCCN5C[C@H](F)C6)nc4c3F)N(C1)C2` (single isomer, unassigned) [Example 406], for which the IC50 in test [1] (setting [4]) is 21 nM. On the same count and under the same terms, then `O[C@H]1C[C@H]2COCCCCc3c(Cl)cc4[nH]ncc4c3-c3ncc4c(nc(OC[C@@]56CCCN5C[C@H](F)C6)nc4c3F)N(C1)C2` (single isomer, unassigned) [Example 407], with 6 nM. Turning to `Cc1cc2[nH]ncc2c2c1CCCn1ncc(n1)C1CCCN(C1)c1nc(OC[C@@]34CCCN3C[C@H](F)C4)nc3c(F)c-2ncc13` (stereo partly drawn) [Example 158, 31-Fluoro-25-(((2R,7aS)-2-fluorotetrahydro-1H-pyrrolo[1,2-a]pyrrol-7a(5H)-yl)methoxy)-9-methyl-5,6,14,15,22,24,26,30,33-nonaazaheptacyclo[25.3.1.1˜14,17˜.1˜18,22˜.0˜2,10˜.0˜3,7˜.0˜23,28˜]tritriaconta-1(31),2,4,7,9,15,17(33),23,25,27,29-undecaene], the IC50 in test [3] (Homo sapiens, ASPC1, 2 h) was found to be 278 nM. Take `CN(C)CC1(COc2nc3c4cnc(c(F)c4n2)-c2c(c(Cl)cc4[nH]ncc24)CCOC(=O)O[C@H]2C[C@]4(CCCN3C4)C2)CC1` [Example 334, (1S,3R)-10-chloro-24-((1-((dimethylamino)methyl)cyclopropyl)methoxy)-32-fluoro-4,6-dioxa-13,14,19,23,25,27-hexaazaheptacyclo[25.3.1.1~1,3~.1~18,22~.0~9,17~.0~12,16~.0~21,26~]tritriaconta-9,11,14,16,18(32),19,21,23,25-nonaen-5-one]: the IC50 in test [1] (TR-FRET binding) stood at 2 nM; in test [3] (Homo sapiens, ASPC1, 2 h), 8 nM. With `O=C1OCCCc2c(Cl)cc3[nH]ncc3c2-c2ncc3c(nc(OC[C@@]45CCCN4C[C@H](F)C5)nc3c2F)N2CCCC[C@@](CF)(C2)O1` [Example 339, (26S)-18-chloro-32-fluoro-26-(fluoromethyl)-4-(((2R,7aS)-2-fluorotetrahyrdo-1H-pyrrolo[1,2-a]pyrrol-7a(5H)-yl)methoxy)-23,25-dioxa-1,3,5,9,14,15-hexaazahexacyclo[24.4.1.1~6,10~.0~2,7~.0~11,19~.0~12,16~]dotriaconta-2,4,6,8,10(32),11,13,16,18-nonaen-24-one], in test [3], the IC50 is 826 nM.

For orientation: IC50 means the point on the concentration scale where inhibition reaches its midpoint.

The values above are taken from patent US20260174769A1, “MACROCYCLIC COMPOUNDS AND METHODS OF USE” (AMGEN INC., priority 2022, published 2026).
